Measurements: US8772319B2 (priority 2004, dated 2014)
Read-outs that look alike come from different tables or passages of the source.

Tests used:
[1] = target: T1, human dopamine transporter (hDAT) (Homo sapiens, UniProt Q01959); assay: biochemical; type: binding
[2] = target: T2, human norepinephrine transporter (hNET) (Homo sapiens, UniProt P23975); assay: cell-based; details: read-out: Reuptake Inhibition [3H]NE IC50
[3] = target: T3, human serotonin transporter (hSERT) (Homo sapiens, UniProt P31645); assay: cell-based
T3 sequence (P31645 whole entry): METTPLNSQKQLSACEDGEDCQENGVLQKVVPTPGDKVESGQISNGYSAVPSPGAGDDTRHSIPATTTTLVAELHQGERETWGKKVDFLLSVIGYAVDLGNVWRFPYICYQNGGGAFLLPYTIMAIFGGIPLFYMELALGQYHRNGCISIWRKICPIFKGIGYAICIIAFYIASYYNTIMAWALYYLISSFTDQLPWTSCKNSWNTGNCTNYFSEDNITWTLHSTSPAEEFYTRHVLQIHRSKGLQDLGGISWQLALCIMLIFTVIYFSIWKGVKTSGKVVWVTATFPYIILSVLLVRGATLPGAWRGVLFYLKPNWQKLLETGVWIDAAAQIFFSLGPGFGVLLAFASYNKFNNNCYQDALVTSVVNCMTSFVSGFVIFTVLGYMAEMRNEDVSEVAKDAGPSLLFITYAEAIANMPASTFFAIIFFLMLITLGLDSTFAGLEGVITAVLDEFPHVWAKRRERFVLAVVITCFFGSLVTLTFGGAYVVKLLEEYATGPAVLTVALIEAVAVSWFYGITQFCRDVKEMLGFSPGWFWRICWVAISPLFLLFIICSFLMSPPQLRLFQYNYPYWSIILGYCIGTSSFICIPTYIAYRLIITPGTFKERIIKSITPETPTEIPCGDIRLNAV

[4] = target: T2, human norepinephrine transporter (hNET); assay: biochemical; details: [125I]RTI-55, read-out: NET binding affinity Ki
[5] = target: T3, human serotonin transporter (hSERT); assay: biochemical; details: [125I]RTI-55, read-out: SERT binding affinity Ki
[6] = target: T1, human dopamine transporter (hDAT); assay: cell-based
[7] = Reuptake Inhibition [3H]5-HT IC50, Table 1-1
[8] = Reuptake Inhibition [3H]DA IC50, Table 1-1
[9] = Reuptake Inhibition [3H]5-HT IC50, Table 2-1
[10] = Reuptake Inhibition [3H]DA IC50, Table 2-1

T1 sequence (Q01959 whole entry): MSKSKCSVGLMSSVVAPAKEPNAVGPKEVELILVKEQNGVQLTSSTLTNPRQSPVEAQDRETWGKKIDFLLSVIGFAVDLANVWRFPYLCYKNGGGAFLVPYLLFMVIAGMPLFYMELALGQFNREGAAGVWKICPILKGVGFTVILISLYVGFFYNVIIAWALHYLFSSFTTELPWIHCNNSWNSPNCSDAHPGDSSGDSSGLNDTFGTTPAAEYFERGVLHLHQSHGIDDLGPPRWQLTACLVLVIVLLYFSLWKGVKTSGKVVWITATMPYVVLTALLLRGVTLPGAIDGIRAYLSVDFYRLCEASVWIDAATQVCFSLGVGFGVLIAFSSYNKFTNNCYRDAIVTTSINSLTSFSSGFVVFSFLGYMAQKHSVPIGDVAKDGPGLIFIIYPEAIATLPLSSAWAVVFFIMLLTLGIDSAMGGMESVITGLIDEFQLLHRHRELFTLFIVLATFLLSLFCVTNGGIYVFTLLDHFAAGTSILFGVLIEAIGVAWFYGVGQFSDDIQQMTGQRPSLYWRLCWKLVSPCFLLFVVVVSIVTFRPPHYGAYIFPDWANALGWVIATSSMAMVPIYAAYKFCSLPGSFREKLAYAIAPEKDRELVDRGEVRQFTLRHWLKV
T2 sequence (P23975 whole entry): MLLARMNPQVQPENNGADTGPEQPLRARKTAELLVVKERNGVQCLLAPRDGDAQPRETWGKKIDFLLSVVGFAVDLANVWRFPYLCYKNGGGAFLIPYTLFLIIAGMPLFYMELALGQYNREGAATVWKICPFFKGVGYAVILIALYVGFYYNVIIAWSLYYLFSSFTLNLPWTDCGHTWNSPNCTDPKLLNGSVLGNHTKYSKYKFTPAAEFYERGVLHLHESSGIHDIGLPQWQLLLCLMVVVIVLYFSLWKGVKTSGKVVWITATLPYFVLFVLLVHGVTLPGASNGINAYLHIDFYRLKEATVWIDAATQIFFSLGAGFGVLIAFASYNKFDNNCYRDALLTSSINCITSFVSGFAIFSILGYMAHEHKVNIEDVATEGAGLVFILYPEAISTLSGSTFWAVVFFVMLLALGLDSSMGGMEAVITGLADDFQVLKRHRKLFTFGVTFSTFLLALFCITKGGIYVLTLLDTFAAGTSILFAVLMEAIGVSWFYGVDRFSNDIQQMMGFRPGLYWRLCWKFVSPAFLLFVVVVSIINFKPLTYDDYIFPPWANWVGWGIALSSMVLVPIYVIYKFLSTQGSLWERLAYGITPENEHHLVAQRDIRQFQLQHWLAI

Structure (SMILES) | Ki [1] [nM] | Binding Ratios NET/DAT ([1]; Table 1) | Binding Ratios SERT/DAT ([1]; Table 1) | IC50 ([2]; Table 1-1) [nM] | IC50 [3, 7] [nM] | Ki ([4]; Table 1) [nM] | Ki ([5]; Table 1) [µM] | IC50 [6, 8] [nM] | Discrimination Ratios [3H]DA reuptake/DAT binding ([6]; Table 1-1) | Binding Ratios NET/DAT ([1]; Table 2) | Binding Ratios SERT/DAT ([1]; Table 2) | IC50 [3, 9] [nM] | Ki ([4]; Table 2) [nM] | Ki ([5]; Table 2) [µM] | IC50 [6, 10] [nM] | Discrimination Ratios [3H]DA reuptake/DAT binding ([6]; Table 2-1) | other results
Fc1ccc(C(OCCCCN2CCNCC2)c2ccc(F)cc2)cc1 [Compound 3] |  |  |  |  |  |  |  |  |  |  |  |  |  |  |  |  | Binding Ratios NET/DAT ([1]; Table 5): 5.7; Binding Ratios SERT/DAT ([1]; Table 5): 3.2; Ki ([1]; Table 5, [125I]RTI-55, oxalate salts, read-out: DAT binding affinity Ki): 600 ± 190 nM; IC50 ([2]; Table 6): 850 ± 270 nM; IC50 ([3]; Table 6, read-out: Reuptake Inhibition [3H]5-HT IC50): 2170 ± 78 nM; Ki ([4]; Table 5, oxalate salts): 3400 ± 1500 nM; Ki ([5]; Table 5, oxalate salts): 1.9 ± 0.33 µM; Discrimination Ratios (DR) [3H]DA reuptake/DAT binding ([6]; Table 6): 1.7; IC50 ([6]; Table 6, read-out: Reuptake Inhibition [3H]DA IC50): 1000 ± 190 nM
O=C(Nc1ccc(F)cc1)N1CCN(CCCCOC(c2ccc(F)cc2)c2ccc(F)cc2)CC1 [Compound 4] | 60 ± 8 | 2.2 | 0.2 | 45 ± 17 | 68 ± 28 | 133 ± 18 | 0.014 ± 0.006 | 9 ± 3 | 0.2 |  |  |  |  |  |  |  | 
O=C(NCc1ccc(F)cc1)N1CCN(CCCCOC(c2ccc(F)cc2)c2ccc(F)cc2)CC1 [Compound 5] | 437 ± 12 | 1.6 | 0.2 | 51 ± 4 | 6 ± 1 | 706 ± 153 | 0.275 ± 0.021 | 53 ± 22 | 0.1 |  |  |  |  |  |  |  | 
Fc1ccc(C(OCCCCN2CCN(C(=S)Nc3cccnc3)CC2)c2ccc(F)cc2)cc1 [Compound 6] | 170 ± 24 | 14.4 | 6.4 | 359 ± 108 | 308 ± 102 | 2450 ± 367 | 1.08 ± 0.3 | 97 ± 19 | 0.6 |  |  |  |  |  |  |  | 
O=C(NS(=O)(=O)c1ccc(F)cc1)N1CCN(CCCCOC(c2ccc(F)cc2)c2ccc(F)cc2)CC1 [Compound 7] |  | 8.1 | 9.5 | 836 ± 93 |  | 2690 ± 258 | 3.16 ± 0.666 |  | 0.6 |  |  |  |  |  |  |  | Ki ([1]; Table 1, [125I]RTI-55, read-out: DAT binding affinity Ki): 334 ± 25 nM; IC50 ([3]; Table 1-1, read-out: Reuptake Inhibition [3H]5-HT IC50): 1620 ± 769 nM; IC50 ([6]; Table 1-1, read-out: Reuptake Inhibition [3H]DA IC50): 206 ± 64 nM
O=C(Nc1ccc(-c2ccccc2)cc1)N1CCN(CCCCOC(c2ccc(F)cc2)c2ccc(F)cc2)CC1 [Compound 8] | 67 | 104 | >149 | 56.3 ± 9.4 | 1020 ± 320 | 6940 | > 10 | 419 ± 34 | 6.3 |  |  |  |  |  |  |  | Ki ([5]; Table 1, bound given in μM): > 10 µM
NCC1CCCN(CCCCOC(c2ccc(F)cc2)c2ccc(F)cc2)C1 (stereo not drawn) [Compound 10] | 113 |  |  |  |  |  |  |  |  | 4.8 | 7.8 | 571 ± 127 | 537 ± 112 | 0.883 | 31 | 0.3 | 
O=C(NCC1CCCN(CCCCOC(c2ccc(F)cc2)c2ccc(F)cc2)C1)c1cccc(C(F)(F)F)c1 (stereo not drawn) [Compound 11] | 403 ± 81 |  |  |  |  |  |  |  |  | 0.1 | 1.2 | 511 | 49 ± 21 | 0.496 ± 0.177 | 46 | 0.1 | IC50 ([2]; Table 2-1): 53 ± 3 nM
O=C(NCC1CCCN(CCCCOC(c2ccc(F)cc2)c2ccc(F)cc2)C1)Nc1ccc(F)cc1 (stereo not drawn) [Compound 12] | 93 |  |  |  |  |  |  |  |  | 1.1 | 2.1 | 123 ± 16 | 99 | 0.198 | 92 ± 24 | 1.0 | IC50 ([2]; Table 2-1): 20 nM
O=C(NCc1ccc(F)cc1)NCC1CCCN(CCCCOC(c2ccc(F)cc2)c2ccc(F)cc2)C1 (stereo not drawn) [Compound 13] | 203 ± 68 |  |  |  |  |  |  |  |  | 0.3 | 2.7 | 177 ± 18 | 60 | 0.545 ± 0.194 | 85 ± 39 | 0.4 | IC50 ([2]; Table 2-1): 136 ± 32 nM
O=C(Nc1ccc(F)cc1)NC1CCN(CCCCOC(c2ccc(F)cc2)c2ccc(F)cc2)CC1 [Compound 17] | 32 ± 1.4 |  |  |  |  |  |  |  |  |  |  |  |  |  |  |  | Binding Ratios NET/DAT ([1]; Table 3): 13.4; Binding Ratios SERT/DAT ([1]; Table 3): 8.7; IC50 ([2]; Table 3-1): 2530 nM; IC50 ([3]; Reuptake Inhibition [3H]5-HT IC50, Table 3-1): 7140 nM; Ki ([4]; Table 3): 430 ± 100 nM; Ki ([5]; Table 3): 0.279 ± 0.057 µM; IC50 ([6]; Reuptake Inhibition [3H]DA IC50, Table 3-1): 7000 ± 1790 nM; Discrimination Ratios [3H]DA reuptake/DAT binding ([6]; Table 3-1): 219
